Assays:
[1] = system: KRAS^G12C; conditions: role: inhibitor, background statement, cited from earlier work
[2] = Stability testing: dissolution (FaSSIF), Example 2; type: physicochemical; conditions: FaSSIF pH 6.50; all crystalline samples, first two timepoints of amorphous samples
Protocol: (§1) Stability testing of the three ASDs prepared in Example 1 was conducted over 2 months (T=0, 1 month and 2 months) using XRPD, TGA, DSC, PSD, and dissolution tests (FaSSIF and biorelevant media).
(§2) Stability Testing: ASD samples were stored in low density polyethylene (LPDE) bags placed in a heat-sealed aluminum foil pouch along with desiccant. Foil pouches were then placed into a stability chamber at 25 °C/60% RH and taken out for stability testing (XRPD, TGA, DSC PSD, dissolution and biorelevant dissolution) at specified timepoints.
Dissolution (FaSSIF): The dissolution properties of ASDs 1-3 and the control spray-dried sotorasib were assessed as described herein. 5 mg of amorphous sotorasib (control), 5 mg of crystalline sotorasib (control), and 20 mg of ASDs1-3 as listed in Table 1 were added to separate 20 mL vials of FaSSIF (pH 6.50) and samples were collected at 5, 15, 20, 30, 60, 120, 180 min timepoints. […] The mobile phases were A:Water with 0.1% trifluoroacetic acid and B:Acetonitile with 0.1% trifluoroacetic acid. The method was a reverse gradient of 5% B 95% A to 98% B 2% A over 15 minutes using a wavelength 254 nm for detection and quantification.

[3] = Particle size distribution (laser diffraction), Example 1; type: physicochemical; conditions: Example 1, Table 1
Text: Particle Size Distribution (PSD): Analysis of each of the samples was obtained using a Sympatec Helos laser diffraction analyzer. The results of the particle size analysis are shown in Table 1 (D10, D50, and D90 values).

[4] = Stability testing: XRPD, Example 2; type: physicochemical
Protocol: as §1, §2
X-Ray Powder Diffraction (XRPD) Analysis: XRPD data was obtained using a Panalytical PW3040-PRO diffractometer. Samples were scanned at room temperature (25 °C) in continuous mode from 3-45 degrees (2θ) with step size of 0.03 degrees at 45 kV and 40 mA with CuKα radiation (1.54 A). The incident beam path was equipped with a primary soller slit 0.04 rad and a divergence slit 0.38 mm, in a fixed slit mode. Samples were prepared on a low background sample holder and placed on a spinning stage with a rotation time of 4 sec.

[5] = Stability testing: Thermal Gravimetric analysis (TGA), Example 2; type: physicochemical
Protocol: as §1, §2
Thermal Gravimetric analysis (TGA): TGA was performed to evaluate presence for residual solvent and any thermal transitions which may result in weight loss. TGA was performed on a TA Instruments Discovery 550 Series analyzer at 5 °C/min from ambient temperature to 200 °C in a platinum pan under dry nitrogen at 25 ml/min. Sample size was ~2-8 mg.

[6] = Stability testing: DSC, Tg, Example 2; type: physicochemical
Protocol: as §1, §2
Differential Scanning Calorimetry (DSC) Analysis: DSC data is collected using a TA Instruments Q2500 DSC. Approximately, 2-6 mg of the sample was placed in a Tzero aluminum pan and sealed with Tzero lid. Method Log consist of equilibrating to −20 °C, holding Isothermal for 1.00 min, Ramping 10.00 °C/min to 160.0 °C, holding isothermal for 1.00 min, bringing down to Ramp of 10.00 °C/min to −20.00 °C, holding isothermal for 1.00 min, ramping 10.00 °C/min to 200 °C, marking end of cycle. Conditions were done under a nitrogen purge of about 50 mL/min.

[7] = Stability testing: particle size distribution (PSD), Example 2; type: physicochemical
Protocol: as §1, §2
Particle Size Distribution (PSD): Analysis of each of the samples was obtained using a Sympatec Helos laser diffraction analyzer. The results are shown below (D10, D50, and D90 values).

Structure (SMILES): C=CC(=O)N1CCN(c2nc(=O)n(-c3c(C)ccnc3C(C)C)c3nc(-c4c(O)cccc4F)c(F)cc23)[C@@H](C)C1 (atropisomer, axis not shown) [Sotorasib]
- activity at the target protein, atropisomers ([1]; (M)- v. (P)-configuration): more active at the target protein than the (P)-configuration
- inhibition of KRAS^G12C [1]: specifically and irreversibly inhibits

Structure (SMILES): C=CC(=O)N1CCN(c2nc(=O)n(-c3c(C)ccnc3C(C)C)c3nc(-c4c(O)cccc4F)c(F)cc23)[C@@H](C)C1 [crystalline sotorasib]
- solubility (samples not diluted) [2]: low solubility

Structure (SMILES): C=CC(=O)N1CCN(c2nc(=O)n(-c3c(C)ccnc3C(C)C)c3nc(-c4c(O)cccc4F)c(F)cc23)[C@@H](C)C1 [sotorasib amorphous]
- D10 [3]: <1.0 μm
- D50 [3]: <4.0 μm
- D90 [3]: <16 μm
- XRPD result ([4]; T = 0): amorphous
- XRPD result ([4]; T = 1 month, 25 °C/60% RH): amorphous
- XRPD result ([4]; T = 2 months, 25 °C/60% RH): amorphous
- TGA result (weight change) ([5]; T = 0): <1%
- TGA result (weight change) ([5]; T = 1 month, 25 °C/60% RH): <1%
- TGA result (weight change) ([5]; T = 2 months, 25 °C/60% RH): <1%
- DSC result - Tg ([6]; T = 0, n1): n1: 147.7 °C
- DSC result - Tg ([6]; T = 0, n2): n2: 146.9 °C
- DSC result - Tg ([6]; T = 1 month, n1, 25 °C/60% RH): n1: 148.4 °C
- DSC result - Tg ([6]; T = 1 month, n2, 25 °C/60% RH): n2: 148.3 °C
- DSC result - Tg ([6]; T = 2 months, n1, 25 °C/60% RH): n1: 149.1 °C
- DSC result - Tg ([6]; T = 2 months, n2, 25 °C/60% RH): n2: 148.6 °C
- PSD result - D10 ([7]; T = 0): 0.8 μm
- PSD result - D50 ([7]; T = 0): 3.6 μm
- PSD result - D90 ([7]; T = 0): 13.4 μm
- PSD result - D10 ([7]; T = 1 month, 25 °C/60% RH): 0.8 μm
- PSD result - D50 ([7]; T = 1 month, 25 °C/60% RH): 4.2 μm
- PSD result - D90 ([7]; T = 1 month, 25 °C/60% RH): 14.4 μm
- PSD result - D10 ([7]; T = 2 months, 25 °C/60% RH): 0.8 μm
- PSD result - D50 ([7]; T = 2 months, 25 °C/60% RH): 3.8 μm
- PSD result - D90 ([7]; T = 2 months, 25 °C/60% RH): 13.5 μm
